Measurements: US7718653B2, “Pyrimidine derivatives for inhibiting Eph receptors” (AstraZeneca AB, priority 2007, dated 2010)

Biological target: T1, recombinant EphB4 (Homo sapiens, UniProt P54760)
T1 construct: amino acids 563-987; Swiss-Prot Acc; No. P54760; purchased ProQinase GmbH 0178-0000-3
T1 sequence (P54760 563-987): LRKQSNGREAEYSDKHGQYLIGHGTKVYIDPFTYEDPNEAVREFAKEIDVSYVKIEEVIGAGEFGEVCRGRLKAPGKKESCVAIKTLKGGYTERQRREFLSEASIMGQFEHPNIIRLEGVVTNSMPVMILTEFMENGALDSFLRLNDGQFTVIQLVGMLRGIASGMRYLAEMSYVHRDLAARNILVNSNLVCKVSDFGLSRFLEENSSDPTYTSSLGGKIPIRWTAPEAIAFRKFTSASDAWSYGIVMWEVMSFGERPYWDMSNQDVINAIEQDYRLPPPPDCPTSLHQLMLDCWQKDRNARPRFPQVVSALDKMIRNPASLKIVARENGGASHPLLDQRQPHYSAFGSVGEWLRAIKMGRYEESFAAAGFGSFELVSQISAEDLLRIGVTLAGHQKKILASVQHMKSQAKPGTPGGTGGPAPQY
Test: In vitro EphB4 enzyme assay (Alphascreen, phosphorylation of biotin-poly-GAT)
Format: biochemical
Conditions: method of compound preparation not stated; read-out: IC50 in assay A
Experimental: A) In vitro EphB4 Enzyme Assay
This assay detects inhibitors of EphB4-mediated phosphorylation of a polypeptide substrate using Alphascreen™ luminescence detection technology. Briefly, recombinant EphB4 was incubated with a biotinylated-polypeptide substrate (biotin-poly-GAT) in presence of magnesium-ATP. The reaction was stopped by addition of EDTA, together with streptavidin-coated donor beads which bind the biotin-substrate containing any phosphorylated tyrosine residues. Anti-phosphotyrosine antibodies present on acceptor beads bind to phosphorylated substrate, thus bringing the donor & acceptor beads into close proximity. Subsequent excitation of the donor beads at 680 nm generated singlet oxygen species that interact with a chemiluminescer on the acceptor beads, leading to light emission at 520-620 nm. The signal intensity is directly proportional to the level of substrate phosphorylation and thus inhibition is measured by a decrease in signal.
Aqueous Compound Preparation:
Acoustic Compound Preparation:
To ensure that each well contained a total of 120 nl DMSO the wells were all backfilled as required. […] The test range of compounds was 100× the required final concentration.
Assay plates were then incubated at room temperature for 1 hour.
For assays using compounds prepared via acoustic dispensing, the assay mix was adjusted such that the final assay volume of 12 ul contained the same concentration of reagent as 10 ul of assay mix used when aqueous compounds were tested.
The plates were sealed under natural lighting conditions, wrapped in aluminium foil and incubated in the dark for a further 20 hours.
The resulting assay signal was determined on the Perkin Elmer EnVision plate reader. The minimum value was subtracted from all values, and the signal plotted against compound concentration to generate IC50 data. The method used to generate the compound dilutions was recorded with the IC50 value in the database.

IC50: 243 nM
SMILES: c1cc(Nc2ccnc(Nc3cc(N4CCOCC4)nc(N4CCOCC4)c3)n2)c2cn[nH]c2c1 [Example 3, N2-(2,6-dimorpholinopyridin-4-yl)-N4-(1H-indazol-4-yl)pyrimidine-2,4-diamine]
